Target: T1, Corticotropin-releasing factor receptor 1 (Rattus norvegicus, UniProt P35353)
T1 sequence (P35353 whole entry): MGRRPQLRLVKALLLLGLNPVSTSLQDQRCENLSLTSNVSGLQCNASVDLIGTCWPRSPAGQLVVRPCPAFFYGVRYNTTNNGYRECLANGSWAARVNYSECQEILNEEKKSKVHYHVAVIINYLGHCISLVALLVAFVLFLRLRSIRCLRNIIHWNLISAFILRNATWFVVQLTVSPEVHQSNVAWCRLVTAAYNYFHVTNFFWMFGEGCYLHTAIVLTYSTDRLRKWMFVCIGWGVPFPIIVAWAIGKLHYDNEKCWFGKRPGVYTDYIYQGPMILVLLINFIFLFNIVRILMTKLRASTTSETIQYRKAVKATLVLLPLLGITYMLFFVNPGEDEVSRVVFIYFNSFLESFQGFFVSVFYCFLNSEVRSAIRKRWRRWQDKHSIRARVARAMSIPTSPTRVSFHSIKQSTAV
Assay: In Vitro Binding Autoradiography
Description: Naive rats were sacrificed by decapitation, and the brain and pituitary were collected. Slide-mounted brain sections were preincubated in an assay solution containing [125I]oCRF for 2 h at room temperature. Concentration-related displacement of test compound was assessed by including the compound in the incubation solution. The adjacent sections were incubated under the same conditions in the presence of 1 uM alpha-helical CRF for defining nonspecific binding for CRF receptor. Nonspecific binding for CRF1 receptors was defined by 1 uM DMP696 or CP-154,526. After incubation, the sections were rinsed, dried, and then placed in cassettes against iodine-sensitive storage phosphor-imaging screens (PerkinElmer Life Sciences), and the screens were then digitally scanned with a Cyclone storage phosphor-imaging system (PerkinElmer Life Sciences). Captured storage phosphor images were analyzed with OptiQuant Acquisition and Analysis software (PerkinElmer Life Sciences).

SMILES: CCCCN(C)c1nc(C)nc2c(-c3c(C)cc(OC)cc3C)c(C)nn12 [Pyrazolo[1,5-a]-1,3,5-triazine, 12-32]
- IC50 (25 °C): 4.22 nM

SMILES: CC[C@@H](C)Nc1nc(C)nc2c(-c3c(C)cc(OC)cc3OC)c(C)nn12 [Pyrazolo[1,5-a]-1,3,5-triazine, 12-16]
- IC50 (pH 7.2, 23 °C): 5.7 nM

SMILES: CCCN(CC1CC1)c1nc(C)nc2c(-c3c(C)cc(OC)cc3OC)c(C)nn12 [Pyrazolo[1,5-a]-1,3,5-triazine, 12-22]
- IC50 (pH 7.2, 23 °C): 1.48 nM

Reference: BindingDB's records for doi:10.1021/jm9000242 (Bristol Myers Squibb, 2009)
